Measured values published in patent publication US12454510B2, “Isophthalamide compound and use thereof” (METISA BIOTECHNOLOGY CO., LTD, priority 2019, dated 2025).
Like-named read-outs stand apart in the source and are kept apart here.

Columns and labels:
Assay type in all cases: in vivo
[1] = system: Plutella xylostella; experiment: Insecticidal activity against Plutella xylostella, airbrush spray on cabbage leaf discs; details: foliar, 72 h; for pest or weed control at 5 µg/mL: 5 mg/L, Table 5, read-out: Lethality rate (%, 3 days after the treatment) 5 mg/L
Description: (§1) After being dissolved in a mixed solvent of acetone/methanol (1:1), the test compound was diluted with water containing 0.1% (wt) Tween 80 to the desired concentration.
(§2) With Leucania separata, Plutella xylostella, and Chilo suppressalis as targets, airbrush spray method was used for the determination of the insecticidal activity.
(§3) Determination method: Cabbage leaves were punched into leaf discs with a diameter of 2 cm with a puncher, and Airbrush spray treatment was carried out at a pressure of 10 psi (approximately 0.7 kg/cm^2) on the front and back sides of each leaf disc, with a spray volume of the compound to be tested of 0.5 ml. After drying in the shade, 10 of 3rd instar larvae were introduced for each treatment, and each treatment was repeated 3 times for. After the treatment, it was placed in an observation room at 25° C. and a relative humidity of 60-70%, and 3 days after the treatment, the number of surviving insects was investigated, and the mortality rate was calculated.

[2] = system: Chilo suppressalis; experiment: Insecticidal activity against Chilo suppressalis, sprayed Oryza sativa seedlings/stalks; details: for Lethality rate (%, 3 days after the treatment) 1 mg/L / Lethality rate (%, 3 days after the treatment) 10 mg/L / Lethality rate (%, 3 days after the treatment) 0.5 mg/L: parallel comparison test, Table 6; for pest or weed control at 1 µg/mL / pest or weed control at 0.25 µg/mL / pest or weed control at 0.5 µg/mL: Chilo suppressalis, 72 h, 3 days after the treatment, 3rd instar larvae, read-out: lethality rate against Chilo suppressalis; for pest or weed control at 1 µg/mL: dose 1 mg/L; for pest or weed control at 0.25 µg/mL: dose 0.25 mg/L; for pest or weed control at 0.5 µg/mL: dose 0.5 mg/L
Description: as §1, §2
Determination method: 1) Preparation of Oryza sativa seedlings: Oryza sativa was cultivated in a constant temperature room (a temperature of 26-28V, a relative humidity of about 60-80%, and a light illumination of 16 hL:8 hD) in a small plastic cup with a diameter of 4.5 cm and a height of 4 cm, and when the Oryza sativa grew up to the 4-5 leaf stage, robust and consistent Oryza sativa seedlings were selected for chemical treatment, and 3 repetitions were performed for each treatment. 2) Preparation for test insects: Chilo suppressalis at 3rd instar larvae were raised continuously indoors. 3) The Oryza sativa stems were sprayed and insects were introduced. Spraying was performed uniformly on the whole plant of the Oryza sativa seedlings, with 15 ml of compound solution for each treatment. The blank control was treated first, and then the above operations were repeated in the order of the test concentration from low to high. After the Oryza sativa seedlings were sprayed, they were placed in a cool place to dry the liquid, and about 5 cm of stalks at the base of the stems were cut and fed to the test insects. A glass petri dish with a diameter of 90 mm was placed with filter paper at the bottom of the dish, and then was moisturized by adding water. After that, about 5 rice stalks and 10 larvae were placed in each dish, and the petri dish was sealed with a non-woven fabric and placed in a constant temperature room for cultivation. The number of remaining live insects was investigated 3 days after the treatment.

[3] = system: Leucania separata; experiment: Insecticidal activity against Leucania separata, airbrush spray on corn leaf sections; details: Mythimna separata, 72 h; dose 0.05 mg/L, 3 days after the treatment, 3rd instar larvae; read-out: lethality rate against Leucania separata
Description: as §1, §2
as §3, with “Corn” for “Cabbage”, “cut” for “punched”, “into” for “into leaf discs with a diameter of”, “leaf sections,” for “with a puncher,”, “section,” for “disc,”, “times.” for “times for.”

[4] = 1 mg/L, parallel comparison test, Table 5, read-out: Lethality rate (%, 3 days after the treatment) 1 mg/L
[5] = 0.5 mg/L, parallel comparison test, Table 5, read-out: Lethality rate (%, 3 days after the treatment) 0.5 mg/L
[6] = 0.05 mg/L, parallel comparison test, Table 5, read-out: Lethality rate (%, 3 days after the treatment) 0.05 mg/L
[7] = dose 1 mg/L, 3 days after the treatment, 3rd instar larvae, read-out: lethality rate against Plutella xylostella
[8] = dose 0.05 mg/L, 3 days after the treatment, 3rd instar larvae, read-out: lethality rate against Plutella xylostella
[9] = dose 0.5 mg/L, 3 days after the treatment, 3rd instar larvae, read-out: lethality rate against Plutella xylostella

| SMILES | pest or weed control at 1 µg/mL [1, 4] [%] | pest or weed control at 5 µg/mL ([1]; parallel comparison test) [%] | pest or weed control at 0.5 µg/mL [1, 5] [%] | pest or weed control at 0.05 µg/mL [1, 6] [%] | pest or weed control at 1 µg/mL [1, 7] [%] | pest or weed control at 0.05 µg/mL [3] [%] | pest or weed control at 1 µg/mL [2] [%] | also measured |
| --- | --- | --- | --- | --- | --- | --- | --- | --- |
| N#CCCN(C(=O)c1cnccn1)c1cccc(C(=O)Nc2c(Br)cc(C(F)(C(F)(F)F)C(F)(F)F)cc2Br)c1F [CK1, reference compound] | 0 | 66.7 | – | – | – | – | – | Lethality rate (%, 3 days after the treatment) 1 mg/L [2]: 0%; Lethality rate (%, 3 days after the treatment) 10 mg/L [2]: 13.33% |
| N#CCCN(C(=O)c1ccc(Cl)nc1)c1cccc(C(=O)Nc2c(Br)cc(C(F)(C(F)(F)F)C(F)(F)F)cc2Br)c1F [Compound 1-1] | 50 | 93.3 | 6.67 | – | – | – | – | – |
| N#CCCN(C(=O)c1cccnc1)c1cccc(C(=O)Nc2c(Br)cc(C(F)(C(F)(F)F)C(F)(F)F)cc2Br)c1F [Compound 1-2] | 30 | 90 | 0 | – | – | – | – | Lethality rate (%, 3 days after the treatment) 1 mg/L [2]: 0%; Lethality rate (%, 3 days after the treatment) 10 mg/L [2]: 0% |
| N#CCCN(C(=O)c1ccncc1)c1cccc(C(=O)Nc2c(Br)cc(C(F)(C(F)(F)F)C(F)(F)F)cc2Br)c1F [Compound 1-3] | 76.7 | 100 | 13.3 | 0 | – | – | – | – |
| N#CCCN(C(=O)c1ccccn1)c1cccc(C(=O)Nc2c(Br)cc(C(F)(C(F)(F)F)C(F)(F)F)cc2Br)c1F [Compound 1-4] | 10 | 60 | – | – | – | – | – | – |
| N#CCCN(C(=O)c1ccc(F)cn1)c1cccc(C(=O)Nc2c(Br)cc(C(F)(C(F)(F)F)C(F)(F)F)cc2Br)c1F [Compound 1-5] | 60 | 83.3 | 33.3 | 0 | – | – | – | – |
| N#CCCN(C(=O)c1cnc(F)cn1)c1cccc(C(=O)Nc2c(Br)cc(C(F)(C(F)(F)F)C(F)(F)F)cc2Br)c1F [Compound 1-6] | 60 | 100 | 16.7 | 0 | – | – | – | – |
| N#CCCN(C(=O)c1cnc(F)nc1)c1cccc(C(=O)Nc2c(Br)cc(C(F)(C(F)(F)F)C(F)(F)F)cc2Br)c1F [Compound 1-7] | 73.3 | 100 | 20 | 0 | – | – | – | – |
| N#CCN(C(=O)c1ccc(F)nc1)c1cccc(C(=O)Nc2c(Br)cc(C(F)(C(F)(F)F)C(F)(F)F)cc2Br)c1F [Compound 1] | – | – | – | – | ≥ 90 | ≥ 90 | ≥ 90 | – |
| N#CCCN(C(=O)c1cccnc1)c1cccc(C(=O)Nc2c(Br)cc(C(F)(C(F)(F)F)C(F)(F)F)cc2C(F)(F)F)c1F [Compound 2-1] | 60 | 100 | 20 | 0 | – | – | – | – |
| N#CCCN(C(=O)c1ccncc1)c1cccc(C(=O)Nc2c(Br)cc(C(F)(C(F)(F)F)C(F)(F)F)cc2C(F)(F)F)c1F [Compound 2-2] | 93.3 | 100 | 30 | 0 | – | – | – | – |
| N#CCCN(C(=O)c1ccccn1)c1cccc(C(=O)Nc2c(Br)cc(C(F)(C(F)(F)F)C(F)(F)F)cc2C(F)(F)F)c1F [Compound 2-3] | 40 | 100 | 10 | 0 | – | – | – | – |
| N#CCCN(C(=O)c1ccc(F)cn1)c1cccc(C(=O)Nc2c(Br)cc(C(F)(C(F)(F)F)C(F)(F)F)cc2C(F)(F)F)c1F [Compound 2-4] | 90 | 100 | 63.3 | 33.3 | – | – | – | – |
| N#CCCN(C(=O)c1cnccn1)c1cccc(C(=O)Nc2c(Br)cc(C(F)(C(F)(F)F)C(F)(F)F)cc2C(F)(F)F)c1F [Compound 2-5] | 50 | 100 | 23.3 | 0 | – | – | – | Lethality rate (%, 3 days after the treatment) 0.5 mg/L [2]: 0%; Lethality rate (%, 3 days after the treatment) 1 mg/L [2]: 23.33%; Lethality rate (%, 3 days after the treatment) 10 mg/L [2]: 70% |
| N#CCCN(C(=O)c1cnc(F)cn1)c1cccc(C(=O)Nc2c(Br)cc(C(F)(C(F)(F)F)C(F)(F)F)cc2C(F)(F)F)c1F [Compound 2-6] | 90 | 100 | 60 | 20 | – | – | – | – |
| N#CCCN(C(=O)c1cnc(F)nc1)c1cccc(C(=O)Nc2c(Br)cc(C(F)(C(F)(F)F)C(F)(F)F)cc2C(F)(F)F)c1F [Compound 2-7] | 96.7 | 100 | 53.3 | 0 | – | – | – | – |
| N#CCCN(C(=O)c1ccc(F)nc1)c1cccc(C(=O)Nc2c(Br)cc(C(F)(C(F)(F)F)C(F)(F)F)cc2Br)c1F [Compound 2] | 100 | 100 | 86.7 | 43.3 | ≥ 90 | ≥ 90 | ≥ 90 | Lethality rate (%, 3 days after the treatment) 0.5 mg/L [2]: 86.67%; Lethality rate (%, 3 days after the treatment) 1 mg/L [2]: 100%; Lethality rate (%, 3 days after the treatment) 10 mg/L [2]: 100% |
| N#CCCCN(C(=O)c1ccc(F)nc1)c1cccc(C(=O)Nc2c(Br)cc(C(F)(C(F)(F)F)C(F)(F)F)cc2Br)c1F [Compound 3] | – | – | – | – | ≥ 90 | ≥ 90 | ≥ 90 | – |
| N#CCCCCN(C(=O)c1ccc(F)nc1)c1cccc(C(=O)Nc2c(Br)cc(C(F)(C(F)(F)F)C(F)(F)F)cc2Br)c1F [Compound 4] | – | – | – | – | ≥ 90 | ≥ 90 | ≥ 90 | – |
| N#CCN(C(=O)c1ccc(F)nc1)c1cccc(C(=O)Nc2c(Br)cc(C(F)(C(F)(F)F)C(F)(F)F)cc2I)c1F [Compound 5] | – | – | – | – | ≥ 90 | ≥ 90 | ≥ 90 | – |
| N#CCCN(C(=O)c1ccc(F)nc1)c1cccc(C(=O)Nc2c(Br)cc(C(F)(C(F)(F)F)C(F)(F)F)cc2I)c1F [Compound 6] | – | – | – | – | ≥ 90 | ≥ 90 | ≥ 90 | – |
| N#CCN(C(=O)c1ccc(F)nc1)c1cccc(C(=O)Nc2c(Br)cc(C(F)(C(F)(F)F)C(F)(F)F)cc2C(F)(F)F)c1F [Compound 9] | – | – | – | – | ≥ 90 | ≥ 90 | ≥ 90 | pest or weed control at 0.05 µg/mL [1, 8]: ≥ 90%; pest or weed control at 0.5 µg/mL [1, 9]: ≥ 90%; pest or weed control at 0.25 µg/mL [2]: ≥ 90%; pest or weed control at 0.5 µg/mL [2]: ≥ 90% |
| N#CCCN(C(=O)c1ccc(F)nc1)c1cccc(C(=O)Nc2c(Br)cc(C(F)(C(F)(F)F)C(F)(F)F)cc2C(F)(F)F)c1F [Compound 10] | 100 | 100 | 100 | 100 | ≥ 90 | ≥ 90 | ≥ 90 | pest or weed control at 0.05 µg/mL [1, 8]: ≥ 90%; pest or weed control at 0.5 µg/mL [1, 9]: ≥ 90%; Lethality rate (%, 3 days after the treatment) 0.5 mg/L [2]: 100%; Lethality rate (%, 3 days after the treatment) 1 mg/L [2]: 100%; Lethality rate (%, 3 days after the treatment) 10 mg/L [2]: 100%; pest or weed control at 0.25 µg/mL [2]: ≥ 90%; pest or weed control at 0.5 µg/mL [2]: ≥ 90% |
